Results published in PMC6071666 (Bioorganic & medicinal chemistry, 2018).
pIC50: −log10 of the molar value.

Target: LSD1 (Homo sapiens, UniProt O60341)
Experiment: in vitro demethylation of H3K4me2 peptide by GST-LSD1, mass spectrometry readout
Type: biochemical

Q: How did the pIC50 turn out when `CC(C)(C)OC(=O)NC1CC1c1ccc(OC(=O)OC(C)(C)C)cc1` (stereo not shown) [compound 3, tert-butyl 2-(4-(tert-butoxycarbonyloxy)phenyl)cyclopropylcarbamate] was run?
A: ~4.67
